# Source: patent US20120231141A1, “BITTERNESS-IMPROVING AGENT FOR BITTER FOOD AND DRINK AND ASTRINGENCY-IMPROVING AGENT FOR ASTRINGENT FOOD AND DRINK” (priority 2009, published 2012)
# Tests used:
# [1] = Bitterness evaluation of grapefruit juice (flavor comparison by 10 panelists); assay type: in vivo; settings: for A: the number of panelists who felt no difference from 3-n-butylphthalide-free / B: the number of panelists who felt some reduction in bitterness / Flavor judgment: the number of panelists who judged it as most proper bitterness / N: the number of panelists who hardly felt bitterness: 10 panelists
# Procedure: 3-n-Butylphthalide was added as a bitterness-improving agent (masking agent for bitterness) of the present invention to commercially available grapefruit juice at the concentrations shown in the following Table 2 to obtain grapefruit juice.
# [2] = Bitterness evaluation of green tea drink (flavor comparison by 10 panelists); assay type: in vivo; settings: for A: the number of panelists who felt no difference from sedanolide-free / B: the number of panelists who fell some reduction in bitterness / Flavor judgment: the number of panelists who judged it as most proper bitterness / N: the number of panelists who hardly felt bitterness: 10 panelists
# Procedure: Five thousand grams of hot water (containing 0.03% of sodium ascorbate) of 60° C. was added to 100 g of Chinese green tea (second picking tea) produced by Josei (heat treatment by steaming), followed by extraction for 5 min while sometimes stirring. Subsequently, solid-liquid separation with flannel filter was performed to obtain 4500 g of an extract (Bx 0.6°). To the extract, 0.04 g of tannase (Kikkoman Corporation: 5000 U/g) was added. The resulting mixture was left to stand at 40° C. for 1 hour to decompose the gallate-type catechin to non-gallate-type catechin (gallate-type catechin has strong astringency, and non-gallate-type catechin has strong bitterness), followed by heating at 90° C. for 1 min to inactivate the enzyme. After cooling to 20° C., the extract was adjusted to Bx 0.5° with deionized water to obtain green tea extract having strong bitterness. Sedanolide was added as a taste-improving agent (masking agent for bitterness) of the present invention to the resulting extract at the concentrations shown in the following Table 3 to obtain green tea drinks.
# [3] = 3-n-butylphthalide 0.01 ppb in grapefruit juice
# [4] = 3-n-butylphthalide 0.01 ppm in grapefruit juice
# [5] = 3-n-butylphthalide 0.1 ppb in grapefruit juice
# [6] = 3-n-butylphthalide 0.1 ppm in grapefruit juice
# [7] = 3-n-butylphthalide 1 ppb in grapefruit juice
# [8] = 3-n-butylphthalide 1 ppm in grapefruit juice
# [9] = 3-n-butylphthalide 1 ppt in grapefruit juice
# [10] = 3-n-butylphthalide 10 ppm in grapefruit juice
# [11] = sedanolide 0.01 ppb in green tea drink having strong bitterness
# [12] = sedanolide 0.01 ppm in green tea drink having strong bitterness
# [13] = sedanolide 0.1 ppb in green tea drink having strong bitterness
# [14] = sedanolide 0.1 ppm in green tea drink having strong bitterness
# [15] = sedanolide 1 ppb in green tea drink having strong bitterness
# [16] = sedanolide 1 ppm in green tea drink having strong bitterness
# [17] = sedanolide 1 ppt in green tea drink having strong bitterness
# [18] = sedanolide 10 ppm in green tea drink having strong bitterness
structure (smiles),measurement,setting,value
CCCCC1OC(=O)c2ccccc21 (stereo not shown) [3-n-butylphthalide],A: the number of panelists who felt no difference from 3-n-butylphthalide-free,[1]; [3],7
same,B: the number of panelists who felt some reduction in bitterness,[1]; [3],2
same,Flavor judgment: the number of panelists who judged it as most proper bitterness,[1]; [3],0
same,N: the number of panelists who hardly felt bitterness,[1]; [3],1
same,reduction in bitterness at low concentration,"[1]; 3-n-butylphthalide 0.01 ppb, grapefruit juice",some panelists felt some reduction in bitterness
same,A: the number of panelists who felt no difference from 3-n-butylphthalide-free,[1]; [4],2
same,B: the number of panelists who felt some reduction in bitterness,[1]; [4],6
same,Flavor judgment: the number of panelists who judged it as most proper bitterness,[1]; [4],2
same,N: the number of panelists who hardly felt bitterness,[1]; [4],2
same,A: the number of panelists who felt no difference from 3-n-butylphthalide-free,[1]; [5],4
same,B: the number of panelists who felt some reduction in bitterness,[1]; [5],6
same,Flavor judgment: the number of panelists who judged it as most proper bitterness,[1]; [5],0
same,N: the number of panelists who hardly felt bitterness,[1]; [5],0
same,A: the number of panelists who felt no difference from 3-n-butylphthalide-free,[1]; [6],0
same,B: the number of panelists who felt some reduction in bitterness,[1]; [6],4
same,Flavor judgment: the number of panelists who judged it as most proper bitterness,[1]; [6],5
same,N: the number of panelists who hardly felt bitterness,[1]; [6],6
same,A: the number of panelists who felt no difference from 3-n-butylphthalide-free,[1]; [7],3
same,B: the number of panelists who felt some reduction in bitterness,[1]; [7],7
same,Flavor judgment: the number of panelists who judged it as most proper bitterness,[1]; [7],0
same,N: the number of panelists who hardly felt bitterness,[1]; [7],0
same,A: the number of panelists who felt no difference from 3-n-butylphthalide-free,[1]; [8],0
same,B: the number of panelists who felt some reduction in bitterness,[1]; [8],4
same,Flavor judgment: the number of panelists who judged it as most proper bitterness,[1]; [8],3
same,N: the number of panelists who hardly felt bitterness,[1]; [8],6
same,A: the number of panelists who felt no difference from 3-n-butylphthalide-free,[1]; [9],9
same,B: the number of panelists who felt some reduction in bitterness,[1]; [9],1
same,Flavor judgment: the number of panelists who judged it as most proper bitterness,[1]; [9],0
same,N: the number of panelists who hardly felt bitterness,[1]; [9],0
same,A: the number of panelists who felt no difference from 3-n-butylphthalide-free,[1]; [10],0
same,B: the number of panelists who felt some reduction in bitterness,[1]; [10],3
same,Flavor judgment: the number of panelists who judged it as most proper bitterness,[1]; [10],0
same,N: the number of panelists who hardly felt bitterness,[1]; [10],7
same,overall result of bitterness masking,"[1]; amount of 3-n-butylphthalide about 0.1 ppb to 1 ppm, grapefruit juice",particularly good results were obtained
same,bitterness of grapefruit juice (judgment),[1]; grapefruit juice containing 0.01 ppb to 10 ppm of 3-n-butylphthalide,masked
CCCCC1OC(=O)C2=CCCCC21 (stereo not shown) [sedanolide],overall result of bitterness masking,"[2]; amount of sedanolide about 0.1 ppb to 1 ppm, green tea drink",particularly good results were obtained
same,bitterness of green tea drink (judgment),[2]; green tea drink containing 0.01 ppb to 10 ppm of sedanolide,masked
same,A: the number of panelists who felt no difference from sedanolide-free,[2]; [11],8
same,B: the number of panelists who fell some reduction in bitterness,[2]; [11],2
same,Flavor judgment: the number of panelists who judged it as most proper bitterness,[2]; [11],0
same,N: the number of panelists who hardly felt bitterness,[2]; [11],0
same,reduction in bitterness at low concentration,"[2]; sedanolide 0.01 ppb, green tea drink",some panelists felt some reduction in bitterness
same,A: the number of panelists who felt no difference from sedanolide-free,[2]; [12],2
same,B: the number of panelists who fell some reduction in bitterness,[2]; [12],6
same,Flavor judgment: the number of panelists who judged it as most proper bitterness,[2]; [12],2
same,N: the number of panelists who hardly felt bitterness,[2]; [12],2
same,A: the number of panelists who felt no difference from sedanolide-free,[2]; [13],4
same,B: the number of panelists who fell some reduction in bitterness,[2]; [13],5
same,Flavor judgment: the number of panelists who judged it as most proper bitterness,[2]; [13],0
same,N: the number of panelists who hardly felt bitterness,[2]; [13],1
same,A: the number of panelists who felt no difference from sedanolide-free,[2]; [14],0
same,B: the number of panelists who fell some reduction in bitterness,[2]; [14],5
same,Flavor judgment: the number of panelists who judged it as most proper bitterness,[2]; [14],5
same,N: the number of panelists who hardly felt bitterness,[2]; [14],5
same,A: the number of panelists who felt no difference from sedanolide-free,[2]; [15],3
same,B: the number of panelists who fell some reduction in bitterness,[2]; [15],6
same,Flavor judgment: the number of panelists who judged it as most proper bitterness,[2]; [15],0
same,N: the number of panelists who hardly felt bitterness,[2]; [15],1
same,A: the number of panelists who felt no difference from sedanolide-free,[2]; [16],0
same,B: the number of panelists who fell some reduction in bitterness,[2]; [16],5
same,Flavor judgment: the number of panelists who judged it as most proper bitterness,[2]; [16],3
same,N: the number of panelists who hardly felt bitterness,[2]; [16],5
same,A: the number of panelists who felt no difference from sedanolide-free,[2]; [17],10
same,B: the number of panelists who fell some reduction in bitterness,[2]; [17],0
same,Flavor judgment: the number of panelists who judged it as most proper bitterness,[2]; [17],0
same,N: the number of panelists who hardly felt bitterness,[2]; [17],0
same,A: the number of panelists who felt no difference from sedanolide-free,[2]; [18],0
same,B: the number of panelists who fell some reduction in bitterness,[2]; [18],5
same,Flavor judgment: the number of panelists who judged it as most proper bitterness,[2]; [18],0
same,N: the number of panelists who hardly felt bitterness,[2]; [18],5
